Experimental data reported in patent US11166940B2, “Treatment of cardiac disorders by blocking SK4 potassium channel” (Ramot at Tel-Aviv University Ltd., priority 2016, dated 2021).

Tests used:
CPVT2 hiPSC-CMs = experiment: Spontaneous APs and DADs in hiPS-CMs derived from CPVT2 (CASQ2 D307H) patients; assay type: cell-based, human; conditions: 5 μM TRAM-34 added to 3 μM isoproterenol
Description: In all experiments, the coverslips were perfused at 33° C. with an external solution containing (in mM): 140 NaCl, 4 KCl, 11 Glucose, 1.2 MgCl2, 1.8 CaCl2, 5.5 HEPES titrated to pH 7.4 with NaOH and adjusted at 320 mOsm with sucrose.
FIG. 4F (Left) presents representative traces of spontaneous APs recorded in hiPS-CM derived from a CPVT2 (CASQ2 D307H) patients. From a regular pacing (black trace), DADs appeared when the cell was exposed to 3 μM isoproterenol (red trace, arrows). […] The suppression of cell 540 automaticity was reversible upon washout (blue trace). FIG. 4F (Right) present bar graphs showing data summary of pacing rate (n=17), on APD50 (n=17) and DADs (Normalized to Ctrl; one-way ANOVA***P=0.0001, n=15).

CASQ2-D307H KI mice = experiment: In vivo telemetric ECG recording in CASQ2-D307H KI mice; design: species or system mouse; conditions: 20 mg/kg IP; for number of mice, most severe ECG form: NSVT / number of mice, most severe ECG form: Normal (sinusal rhythm) / number of mice, most severe ECG form: SVT / number of mice, most severe ECG form: VPC: n=5 Clotrimazole, n=12 TRAM-34
Source text: Telemetric ambulatory long-term ECG recordings, analogous to Holter monitoring in humans, were obtained with implantable transmitters. […] An implantable 3.5 grams wireless radiofrequency transmitter (DSI MM USA, device weight 3.8 grams) was aseptically inserted into a subcutaneous tissue pocket in the back as described in Katz, G., et al. Heart Rhythm 7, 1676-1682 (2010) and Kurtzwald-Josefson, E., et al. Heart Rhythm 11, 1471-1479 (2014)]. Animals were allowed to recover after surgery for at least 24 hours before any experiments. Baseline electrocardiograms (ECG) were obtained 15 minutes after IP injection of the appropriate vehicle (peanut oil or peanut oil supplemented with ethanol 1%). […] Telemetered ECG tracings were obtained in conscious mice at rest for one minute and during peak exercise (i.e. the first minute of recovery). In the treadmill exercise, mice were forced to exercise on a rodent treadmill; gradually increasing the speed up to a maximum of 15 m/minute. Ventricular tachycardia (VT) was defined as four or more consecutive ventricular beats. If this phenotype was consecutively observed for more than 15 seconds, it was defined as “sustained” ventricular tachycardia (SVT). Shorter VTs were characterized as “non-sustained” (NSVT). All other ventricular arrhythmias, such as premature beats, ventricular bigeminy, couplets and triplets were all defined as ventricular premature contractions (VPCs).
A heart telemetry device was implanted in WT, CASQ2-D307H KI and CASQ2 KO mice for continuous ECG recording at rest and during treadmill exercise. For each session, continuous ECG recording was performed with the same animals receiving first intraperitoneal (IP) injection of vehicle (peanut oil) and then the SK4 channel blocker.
The types of arrhythmic features were classified following their seriousness: sinusal rhythm (normal), ventricular premature contractions (VPC), non-sustained ventricular tachycardia (NSVT) and sustained ventricular tachycardia (SVT). For each mouse was considered the most severe form of arrhythmia recorded under ECG.

[1] = test system: SAN cells from CASQ2-D307H KI mice; experiment: Spontaneous APs and DADs of isolated SAN cells from CASQ2 D307H KI mice; assay type: cell-based, mouse; conditions: 2 μM TRAM-34 added to 50 nM isoproterenol
Description: WT and CASQ2 D307H KI mice were anesthetized with isofluorane and sacrificed by cervical dislocation. The heart was rapidly removed and transferred into Tyrode solution containing heparin. […] The area was cleaned, cut into small strips and washed into a Low Calcium Solution, containing (in mM): 140 NaCl, 5.4 KCl, 0.5 MgCl2, 1.2 KH2PO4, 5 HEPES-NaOH, 50 taurine, 5.5 glucose (pH 6.9). The osmolarity was adjusted if needed to 315 mOsm.
The same solution, supplemented with 1 mg/ml albumin, 200 μM CaCl2, collagenase Type I (Worthington) or liberase TH (Roche), protease (Sigma) and elastase (Sigma) was used for enzymatic digestion as previously described [See, Mesirca, P., et al. Nat Commun 5, 4664 (2014)]. In this step, the tissue was gently resuspended with a polished Pasteur pipette in this solution for 9-13 minutes at 37° C. SAN samples were then washed three times in a modified “Kraftbrühe” solution, containing (in mM): 70 glutamic acid, 80 KOH, 20 KCl, 10 γ-Hydroxybutyric acid sodium salt, 10 KH2PO4, 10 HEPES-KOH, 10 taurine, 1 mg/ml albumin, 0.1 EGTA-KOH (pH 7.2). […] Cells were then gradually exposed to increasing concentrations of calcium, following a “Ca^2+ readaptation” protocol [Mesirca et al., 2014, supra]. […]
FIG. 5F (Left) presents representative traces of spontaneous APs recorded in single SAN cell from CASQ2 D307H KI mice. […]

## Clc1ccccc1C(c1ccccc1)(c1ccccc1)n1cccn1 [TRAM-34, 1-[(2-chlorophenyl)diphenylmethyl]-1H-pyrazole]
CPVT2 hiPSC-CMs
  number of DADs: drastically reduced the number of DADs
  spontaneous activity: reversible cessation of the spontaneous activity
CASQ2-D307H KI mice; KI mice at rest, n=12
  PR prolongation: 23%
  heart rate decrease: 24±4%
CASQ2-D307H KI mice; KI mice during treadmill exercise
  sinus rate and PR interval: significant sinus bradycardia and PR interval prolongation
CASQ2-D307H KI mice; KI mice, resting conditions
  mice with ECG arrhythmic features totally suppressed: 9 out of 12
CASQ2-D307H KI mice; KI at rest
  number of mice, most severe ECG form: NSVT: 0
  number of mice, most severe ECG form: Normal (sinusal rhythm): 9
  number of mice, most severe ECG form: SVT: 0
  number of mice, most severe ECG form: VPC: 3
CASQ2-D307H KI mice; KI during Exercise
  number of mice, most severe ECG form: NSVT: 4
  number of mice, most severe ECG form: Normal (sinusal rhythm): 4
  number of mice, most severe ECG form: SVT: 0
  number of mice, most severe ECG form: VPC: 4
[1]
  occurrence of DADs: drastically reduced
